What follows are molecules tested against T1, Tyrosinase (Agaricus bisporus) (UniProt O42713) (assay: Ratio of kojic acid IC50 to compound IC50 for mushroom tyrosinase).
T1 sequence (whole entry): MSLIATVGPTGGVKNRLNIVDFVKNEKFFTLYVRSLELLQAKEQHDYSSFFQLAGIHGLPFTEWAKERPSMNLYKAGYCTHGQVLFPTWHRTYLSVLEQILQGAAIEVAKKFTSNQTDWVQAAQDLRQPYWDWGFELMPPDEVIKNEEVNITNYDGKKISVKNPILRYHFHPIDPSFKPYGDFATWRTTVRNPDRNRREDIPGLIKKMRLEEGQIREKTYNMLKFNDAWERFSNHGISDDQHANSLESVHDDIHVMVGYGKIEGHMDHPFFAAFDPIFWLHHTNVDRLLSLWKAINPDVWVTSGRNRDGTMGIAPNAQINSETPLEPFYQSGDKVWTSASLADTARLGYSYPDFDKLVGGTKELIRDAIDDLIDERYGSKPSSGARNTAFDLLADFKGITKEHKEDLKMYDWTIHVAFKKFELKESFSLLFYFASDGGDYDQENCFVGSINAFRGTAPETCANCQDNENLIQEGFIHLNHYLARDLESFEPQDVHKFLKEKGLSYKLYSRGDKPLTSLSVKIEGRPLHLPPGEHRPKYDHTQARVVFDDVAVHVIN

Structure (SMILES) | Ratio IC50
C[C@H](CCc1ccc(O)cc1O)O[C@@H]1O[C@H](CO)[C@@H](O[C@@H]2O[C@H](CO)[C@@H](O)[C@H](O)[C@H]2O)[C@H](O)[C@H]1O | 6

What follows are molecules tested against T2, Tyrosinase (Agaricus bisporus, UniProt O42713) (assay: Inhibition of mushroom tyrosinase using L-DOPA as substrate assessed as dopachrome formation after 5 mins by spectrophotometry).
T2 sequence (O42713 whole entry): T1 sequence (whole entry)

Structure (SMILES) | IC50 [nM]
C[C@@H](CCc1ccc(O)cc1O)O[C@@H]1O[C@H](CO)[C@@H](O[C@@H]2O[C@H](CO)[C@@H](O)[C@H](O)[C@H]2O)[C@H](O)[C@H]1O | 3830
C[C@H](CCc1ccc(O)cc1O)O[C@@H]1O[C@H](CO)[C@@H](O)[C@H](O)[C@H]1O | 2300
CCCCCCc1ccc(O)cc1O [HEXYLRESORCINOL] | 560
C[C@H](CCc1ccc(O)cc1O)O[C@@H]1OC[C@@H](O)[C@H](O)[C@H]1O | 1720
C[C@@H](CCc1ccc(O)cc1O)O[C@@H]1O[C@H](CO)[C@@H](O)[C@H](O)[C@H]1O | 4720
C[C@H](CCc1ccc(O)cc1O)O[C@@H]1O[C@H](CO)[C@@H](O[C@@H]2O[C@H](CO)[C@@H](O)[C@H](O)[C@H]2O)[C@H](O)[C@H]1O | 1510
C[C@@H](CCc1ccc(O)cc1O)O[C@@H]1OC[C@@H](O)[C@H](O)[C@H]1O | 4560

Source: ChEMBL document CHEMBL3098052, “Chemical synthesis and tyrosinase inhibitory activity of rhododendrol glycosides” (Bioorg Med Chem Lett, 2014)
